ChEMBL document CHEMBL4346705, “(±)-trans-Dihydronarciclasine and (±)-trans-dihydrolycoricidine analogues modified in their ring A: Evaluation of their anticancer activity and a SAR study” (2019)

Legend:
Format in all cases: functional
MOLT-4 = experiment: Cytotoxicity against human MOLT4 cells assessed as growth inhibition after 48 hrs by sulforhodamine B assay; conditions: MOLT-4, 48 h; for CC50: read-out: LC50 (the source's name)
SNB-75 = experiment: Cytotoxicity against human SNB75 cells assessed as growth inhibition after 48 hrs by sulforhodamine B assay; conditions: SNB-75, 48 h
HCT-15 = experiment: Cytotoxicity against human HCT15 cells assessed as growth inhibition after 48 hrs by sulforhodamine B assay; conditions: HCT-15, 48 h
MCF7 = experiment: Cytotoxicity against human MCF7 cells assessed as growth inhibition after 48 hrs by sulforhodamine B assay; conditions: MCF7, 48 h
SNB-19 = experiment: Cytotoxicity against human SNB19 cells assessed as growth inhibition after 48 hrs by sulforhodamine B assay; conditions: SNB-19, 48 h
NCI-H322M = experiment: Cytotoxicity against human NCI-H322M cells assessed as growth inhibition after 48 hrs by sulforhodamine B assay; conditions: for CC50: read-out: LC50 (the source's name)
M14 = experiment: Cytotoxicity against human M14 cells assessed as growth inhibition after 48 hrs by sulforhodamine B assay; conditions: M14, 48 h; for CC50: read-out: LC50 (the source's name)
Hs-578T = experiment: Cytotoxicity against human Hs 578T cells assessed as growth inhibition after 48 hrs by sulforhodamine B assay
A498 = experiment: Cytotoxicity against human A498 cells assessed as growth inhibition after 48 hrs by sulforhodamine B assay; conditions: A498, 48 h
KM12 = experiment: Cytotoxicity against human KM12 cells assessed as growth inhibition after 48 hrs by sulforhodamine B assay; conditions: KM12, 48 h
SR = experiment: Cytotoxicity against human SR cells assessed as growth inhibition after 48 hrs by sulforhodamine B assay; conditions: for CC50: read-out: LC50 (the source's name)
Malme-3M = experiment: Cytotoxicity against human MALME-3M cells assessed as growth inhibition after 48 hrs by sulforhodamine B assay
MDA-MB-231 = experiment: Cytotoxicity against human MDA-MB-231 cells assessed as growth inhibition after 48 hrs by sulforhodamine B assay; conditions: MDA-MB-231, 48 h
DU-145 = experiment: Cytotoxicity against human DU145 cells assessed as growth inhibition after 48 hrs by sulforhodamine B assay; conditions: DU-145, 48 h
786-0 = experiment: Cytotoxicity against human 786-0 cells assessed as growth inhibition after 48 hrs by sulforhodamine B assay; conditions: 786-0, 48 h
PC-3 = experiment: Cytotoxicity against human PC3 cells assessed as growth inhibition after 48 hrs by sulforhodamine B assay; conditions: PC-3, 48 h
NCI-H226 = experiment: Cytotoxicity against human NCI-H226 cells assessed as growth inhibition after 48 hrs by sulforhodamine B assay; conditions: NCI-H226, 48 h
MDA-MB-435 = experiment: Cytotoxicity against human MDA-MB-435 cells assessed as growth inhibition after 48 hrs by sulforhodamine B assay; conditions: MDA-MB-435, 48 h
NCI-H460 = experiment: Cytotoxicity against human NCI-H460 cells assessed as growth inhibition after 48 hrs by sulforhodamine B assay; conditions: NCI-H460, 48 h
EKVX = experiment: Cytotoxicity against human EKVX cells assessed as growth inhibition after 48 hrs by sulforhodamine B assay; conditions: for CC50: read-out: LC50 (the source's name)
RXF 393 = experiment: Cytotoxicity against human RXF393 cells assessed as growth inhibition after 48 hrs by sulforhodamine B assay; conditions: RXF 393, 48 h
ACHN = experiment: Cytotoxicity against human ACHN cells assessed as growth inhibition after 48 hrs by sulforhodamine B assay
K562 = experiment: Cytotoxicity against human K562 cells assessed as growth inhibition after 48 hrs by sulforhodamine B assay; conditions: K562, 48 h; for CC50: read-out: LC50 (the source's name)
SF-268 = experiment: Cytotoxicity against human SF268 cells assessed as growth inhibition after 48 hrs by sulforhodamine B assay; conditions: SF-268, 48 h

## O=C1NC2C(CC(O)C(O)C2O)c2cc3c(c(O)c21)OCO3 (racemic)
MOLT-4
  GI50: 63.6 nM
  CC50: > 100000 nM
SNB-75
  GI50: 75.4 nM
  TGI: 620 nM
SNB-75; read-out: LC50 (the source's name)
  CC50: 13200 nM
HCT-15
  GI50: 85.7 nM
  TGI: 1110 nM
MCF7
  GI50: 36.3 nM
  TGI: 1230 nM
SNB-19
  GI50: 46.6 nM
  TGI: 690 nM
NCI-H322M
  GI50: 49.6 nM
  TGI: 480 nM
  CC50: > 100000 nM
M14
  GI50: 52.5 nM
  TGI: 220 nM
  CC50: 700 nM
Hs-578T
  GI50: 76.1 nM
  TGI: 510 nM
A498
  GI50: 200 nM
  TGI: 540 nM
KM12
  GI50: 44.5 nM
  TGI: 320 nM
SR
  GI50: 52.2 nM
  TGI: > 100000 nM
  CC50: > 100000 nM
Malme-3M
  GI50: 85.9 nM
  TGI: 390 nM
MDA-MB-231
  GI50: 100 nM
  TGI: 880 nM
DU-145
  GI50: 56.7 nM
  TGI: 620 nM
786-0
  GI50: 151 nM
  TGI: 1290 nM
PC-3
  GI50: 164 nM
  TGI: 850 nM
NCI-H226
  GI50: 61.7 nM
  TGI: 590 nM
MDA-MB-435
  GI50: 68.1 nM
  TGI: 510 nM
NCI-H460
  GI50: 43.3 nM
  TGI: 490 nM
EKVX
  GI50: 145 nM
  TGI: 1060 nM
  CC50: > 100000 nM
RXF 393
  GI50: 118 nM
  TGI: 510 nM
ACHN
  GI50: 97.9 nM
  TGI: 750 nM
K562
  GI50: 52.9 nM
  TGI: > 100000 nM
  CC50: > 100000 nM
SF-268
  GI50: 127 nM
  TGI: 800 nM

## O=C1NC2C(CC(O)C(O)C2O)c2cc3c(c(O)c21)OCCO3 (racemic)
MOLT-4
  GI50: 179 nM
  TGI: 10100 nM
  CC50: > 100000 nM
HCT-15
  GI50: 280 nM
  LC50 (50% lethal concentration): > 100000 nM
  TGI: 1910 nM
MCF7
  GI50: 103 nM
  LC50: > 100000 nM
  TGI: 590 nM
SNB-19
  GI50: 155 nM
  LC50: > 100000 nM
  TGI: 1030 nM
NCI-H322M
  GI50: 105 nM
  TGI: 620 nM
  CC50: > 100000 nM
M14
  GI50: 230 nM
  TGI: 1190 nM
  CC50: 5530 nM
Hs-578T
  GI50: 256 nM
  LC50 (concentration killing 50% of cells): > 100000 nM
  TGI: 940 nM
A498
  GI50: 300 nM
  LC50 (concentration killing 50% of cells): 6860 nM
  TGI: 1170 nM
KM12
  GI50: 187 nM
  LC50: > 100000 nM
  TGI: 1210 nM
SR
  GI50: 314 nM
  TGI: 36800 nM
  CC50: > 100000 nM
Malme-3M
  GI50: 190 nM
  LC50: 5200 nM
  TGI: 710 nM
MDA-MB-231
  GI50: 232 nM
  LC50: 13200 nM
  TGI: 1160 nM
DU-145
  GI50: 239 nM
  LC50: > 100000 nM
  TGI: 860 nM
786-0
  GI50: 254 nM
  LC50 (concentration killing 50% of cells): > 100000 nM
  TGI: 1610 nM
PC-3
  GI50: 299 nM
  LC50: > 100000 nM
  TGI: 2140 nM
NCI-H226
  GI50: 220 nM
  LC50: 79800 nM
  TGI: 730 nM
MDA-MB-435
  GI50: 265 nM
  LC50 (concentration killing 50% of cells): 13300 nM
  TGI: 1170 nM
NCI-H460
  GI50: 154 nM
  LC50: > 100000 nM
  TGI: 1050 nM
EKVX
  GI50: 257 nM
  TGI: 1270 nM
  CC50: > 100000 nM
RXF 393
  GI50: 179 nM
  LC50 (50% lethal concentration): 6300 nM
  TGI: 710 nM
ACHN
  GI50: 297 nM
  LC50 (concentration killing 50% of cells): 7730 nM
  TGI: 1480 nM
K562
  GI50: 126 nM
  TGI: 10700 nM
  CC50: > 100000 nM
SF-268
  GI50: 260 nM
  LC50: > 100000 nM
  TGI: 1220 nM
